# Data from US20240226106A1, “INHIBITORS OF PLASMA KALLIKREIN” (SHIRE HUMAN GENETIC THERAPIES, INC., priority 2021, published 2024).
# Like-named read-outs stand apart in the source and are kept apart here.
# How the values were obtained:
# [1] = biological target: human activated kallikrein enzyme (Homo sapiens, UniProt P03952); experiment: Inhibition of human activated plasma kallikrein, fluorogenic peptide substrate (PFR-AMC), 500 pM enzyme format; type: biochemical; conditions: 500 pM activated kallikrein, 30 min preincubation, 10 min reaction, room temperature, read-out: Primary Dose Response Assay: Average EC50
# Experimental: Compounds were evaluated for inhibition of the human activated kallikrein enzyme in two formats of an assay employing a fluorogenic peptide substrate. In one assay format, the concentrations of reagents were as follows: 20 mM Tris pH 7.5, 1 mM EDTA, 150 mM sodium chloride, 0.1% PEG-400, 0.1% Triton X-100, 500 pM activated kallikrein enzyme, […] Pro-Phe-Arg-7-amido-4-methylcoumarin (PFR-AMC) substrate. Prior to reaction initiation with substrate, enzyme and inhibitors were preincubated for 30 min at room temperature. After initiation with substrate, reactions were incubated for 10 min at room temperature and fluorescence emission at 460 nm from 380 nm excitation measured with a microplate reader. In another assay format, the concentrations of reagents were as follows: 20 mM Tris pH 7.5, 1 mM EDTA, 150 mM sodium chloride, 0.1% PEG-400, 0.1% Triton X-100, 5 pM activated kallikrein enzyme, 300 uM PFR-AMC substrate. Prior to reaction initiation with substrate, enzyme and inhibitors were preincubated for 30 min at room temperature. After initiation with substrate, reactions were incubated for 18 hr at room temperature and fluorescence emission at 460 nm from 380 nm excitation measured with a microplate reader.
# plasma kallikrein = biological target: T1, plasma kallikrein (Homo sapiens, UniProt P03952); experiment: Neat human plasma assay (fluorogenic peptide), contact pathway-activated plasma; type: biochemical; conditions: read-out: Human Plasma Assay: IC90
# T1 construct: from tissue; host or cells: sodium citrate collected human plasma
# Experimental: To analyze inhibition of plasma kallikrein in an ex vivo setting, the potency of compounds was measure in contact pathway-activated plasma assays. In a fluorogenic peptide substrate assay, test compounds dissolved in DMSO were added to sodium citrate collected human or rat plasma in a 96-well microplate. Alternatively, citrated plasma was collected from rats administered the compounds orally or by IV. 10 nM of human FXIIa (Enzyme Research Laboratories) diluted in PKa buffer (20 mM Tris-HCl, pH 7.5, 150 mM NaCl, 1 mM EDTA, 0.100 PEG-8000, and 0.1% Triton X-100) was added to the plasma, followed by the 100 μM of the profluorescent, synthetic plasma kallikrein substrate PFR-AMC (also diluted in PKa buffer). Final plasma concentration in the reaction was […]. Fluorescence was immediately monitored by excitation/emission wavelengths of 360 nm/480 nm respectively over a period of 5 minutes in a microplate reader. The resulting linear increase in fluorescence emission (reflecting PKa proteolysis of PFR-AMC substrate) was fit to extract a proteolytic rate (fluorescent units over time), and this rate was subsequently plotted against compound inhibitor concentration. Resulting plots were fit to a standard 4-parameter IC50/C90 equation to determine min/max values, IC50/90, and slope. All experimental steps were performed at room temperature.
# [2] = citrated human plasma, 10 nM human FXIIa activation, 100 μM PFR-AMC, room temperature
# T1 sequence (P03952 391-638 limits assumed): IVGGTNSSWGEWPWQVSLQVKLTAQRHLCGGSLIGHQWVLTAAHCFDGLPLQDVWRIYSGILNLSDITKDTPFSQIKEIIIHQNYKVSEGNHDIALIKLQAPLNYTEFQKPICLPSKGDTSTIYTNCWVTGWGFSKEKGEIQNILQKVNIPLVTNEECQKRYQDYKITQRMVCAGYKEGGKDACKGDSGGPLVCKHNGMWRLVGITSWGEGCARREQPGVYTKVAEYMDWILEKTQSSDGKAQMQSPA
# T1 sequence (P03952 20-390 partner limits assumed): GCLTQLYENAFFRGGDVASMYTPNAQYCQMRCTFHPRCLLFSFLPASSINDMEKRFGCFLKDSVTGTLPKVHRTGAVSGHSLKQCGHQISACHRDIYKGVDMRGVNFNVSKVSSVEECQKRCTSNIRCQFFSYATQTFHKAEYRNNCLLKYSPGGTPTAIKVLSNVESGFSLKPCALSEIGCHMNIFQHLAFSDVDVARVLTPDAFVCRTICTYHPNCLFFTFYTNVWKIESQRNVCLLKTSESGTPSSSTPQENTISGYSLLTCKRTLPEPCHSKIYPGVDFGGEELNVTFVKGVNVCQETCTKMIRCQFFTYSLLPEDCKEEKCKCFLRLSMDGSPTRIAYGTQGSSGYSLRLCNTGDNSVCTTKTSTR
# human activated kallikrein enzyme, sequence (P03952 391-638 limits assumed): as the sequence (P03952 391-638 limits assumed) above
# human activated kallikrein enzyme, sequence (P03952 20-390 partner limits assumed): as the sequence (P03952 20-390 partner limits assumed) above
SMILES,EC50 [1],IC90 (plasma kallikrein; [2]),IC90 (plasma kallikrein)
"Cc1ccnc([C@H]2C[C@@H]2C(=O)Nc2cc(NCc3ccc4ncc(C5CC5)cc4c3)ncn2)n1 [Example 93, (1S,2S)—N-(6-(((3-cyclopropylquinolin-6-yl)methyl)amino)pyrimidin-4-yl)-2-(4-methylpyrimidin-2-yl)cyclopropane-1-carboxamide]",< 2.5 nM,< 500 nM,
"O=C(Nc1cc(NCc2cc3cc(C4CC4)cc(N4CCOC4=O)n3n2)ncn1)[C@H]1C[C@@H]1c1cccc(Cl)c1 [Example 49, (1S,2S)-2-(3-chlorophenyl)-N-(6-(((5-cyclopropyl-7-(2-oxooxazolidin-3-yl)pyrazolo[1,5-a]pyridin-2-yl)methyl)amino)pyrimidin-4-yl)cyclopropane-1-carboxamide]",< 2.5 nM,500 to 5000 nM,
"CN1C(=O)CN(c2cc(C3CC3)cc3cc(CNc4cc(NC(=O)[C@H]5C[C@@H]5c5cc(Cl)ccn5)ncn4)nn23)C1=O (racemic) [Example 57, rac-(1S*,2S*)-2-(4-chloropyridin-2-yl)-N-(6-(((5-cyclopropyl-7-(3-methyl-2,4-dioxoimidazolidin-1-yl)pyrazolo[1,5-a]pyridin-2-yl)methyl)amino)pyrimidin-4-yl)cyclopropane-1-carboxamide]",< 2.5 nM,500 to 5000 nM,
"Cc1ccnc([C@H]2C[C@@H]2C(=O)Nc2cc(OCc3cn4cc(C5CC5)cnc4n3)cnn2)n1 [Example 94, (1S,2S)—N-(5-((6-cyclopropylimidazo[1,2-a]pyrimidin-2-yl)methoxy)pyridazin-3-yl)-2-(4-methylpyrimidin-2-yl)cyclopropane-1-carboxamide]",< 2.5 nM,< 500 nM,
"O=C(Nc1nccc2nn(Cc3cn4nc(C5CC5)ccc4n3)cc12)[C@H]1C[C@@H]1c1cccc(Cl)c1 [Example 35, (1S,2S)-2-(3-chlorophenyl)-N-(2-((6-cyclopropylimidazo[1,2-b]pyridazin-2-yl)methyl)-2H-pyrazolo[4,3-c]pyridin-4-yl)cyclopropane-1-carboxamide]",< 2.5 nM,500 to 5000 nM,
"Cc1ccnc([C@H]2C[C@@H]2C(=O)Nc2cc(NCc3cc4cc(C5CC5)cc(N5CC(=O)N(C)C5=O)n4n3)nc(C)n2)n1 [Example 99, (1S,2S)—N-(6-(((5-cyclopropyl-7-(3-methyl-2,4-dioxoimidazolidin-1-yl)pyrazolo[1,5-a]pyridin-2-yl)methyl)amino)-2-methylpyrimidin-4-yl)-2-(4-methylpyrimidin-2-yl)cyclopropane-1-carboxamide]",< 2.5 nM,,< 500 nM
"Cc1ccnc([C@H]2C[C@@H]2C(=O)Nc2cc(N3C[C@@H](O)C[C@@H]3c3cn4cc(C5CC5)cnc4n3)ncn2)n1 (relative stereo) [Example 72, rac-(1S*,2S*)—N-(6-((2R,4S)-2-(6-cyclopropylimidazo[1,2-a]pyrimidin-2-yl)-4-hydroxypyrrolidin-1-yl)pyrimidin-4-yl)-2-(4-methylpyrimidin-2-yl)cyclopropane-1-carboxamide]",< 2.5 nM,500 to 5000 nM,
"O=C(Nc1cc(NCc2ccc(Cn3ccccc3=O)cc2)cnn1)[C@@H]1C[C@H]1c1cccc(Cl)c1 (single isomer, unassigned) [Example 16]",< 2.5 nM,,
"Cc1ccnc([C@H]2C[C@@H]2C(=O)Nc2cc(NCc3nc4ncc(C5CC5)cn4n3)ncn2)n1 (racemic) [Example 78, rac-(1S*,2S*)—N-(6-(((6-cyclopropyl-[1,2,4]triazolo[1,5-a]pyrimidin-2-yl)methyl)amino)pyrimidin-4-yl)-2-(4-methylpyrimidin-2-yl)cyclopropane-1-carboxamide]",2.5 to 25 nM,,
"O=C(Nc1cc(NCc2cn3c(NC4CC4)nccc3n2)ncn1)[C@H]1C[C@@H]1c1cccc(Cl)c1 [Example 50, (1S,2S)-2-(3-chlorophenyl)-N-(6-(((5-(cyclopropylamino)imidazo[1,2-c]pyrimidin-2-yl)methyl)amino)pyrimidin-4-yl)cyclopropane-1-carboxamide]",> 500 nM,,
"N#Cc1ccc(Cl)cc1[C@H]1C[C@@H]1C(=O)Nc1cc(NCc2nc3ccc(C4CC4)nn3n2)ncn1 (racemic) [Example 27, rac-(1S*,2S*)-2-(5-chloro-2-cyanophenyl)-N-(6-(((6-cyclopropyl-[1,2,4]triazolo[1,5-b]pyridazin-2-yl)methyl)amino)pyrimidin-4-yl)cyclopropane-1-carboxamide]",2.5 to 25 nM,,
"O=C(Nc1cc(NCc2ccc3ncc(C4CC4)cc3c2)ccn1)[C@H]1C[C@@H]1c1cccc(Cl)c1 [Example 33, (1S,2S)-2-(3-chlorophenyl)-N-(4-(((3-cyclopropylquinolin-6-yl)methyl)amino)pyridin-2-yl)cyclopropane-1-carboxamide]",2.5 to 25 nM,,
"Cc1cnn(-c2cc(COc3cnnc(NC(=O)[C@H]4C[C@@H]4c4cccc(Cl)c4)c3)ccn2)c1 (racemic) [Example 11, rac-(1S*,2S*)-2-(3-chlorophenyl)-N-(5-((2-(4-methyl-1H-pyrazol-1-yl)pyridin-4-yl)methoxy)pyridazin-3-yl)cyclopropanecarboxamide]",> 500 nM,,
"CC(Oc1cnnc(NC(=O)[C@H]2C[C@@H]2c2cccc(Cl)c2)c1)c1ccc(Cn2cccn2)cc1 (relative stereo) [Example 3, rac-(1S*,2S*)-N-(5-(1-(4-((1H-pyrazol-1-yl)methyl)phenyl)ethoxy)pyridazin-3-yl)-2-(3-chlorophenyl)cyclopropane-1-carboxamide]",2.5 to 25 nM,,
"O=C(Nc1cc(NCc2ccc(Cn3ccccc3=O)cc2)cnn1)[C@H]1C[C@@H]1c1cccc(Cl)c1 (racemic) [Example 14, rac-(1S*,2S*)-2-(3-chlorophenyl)-N-(5-((4-((2-oxopyridin-1 (2H)-yl)methyl)benzyl)amino)pyridazin-3-yl)cyclopropane-1-carboxamide]",< 2.5 nM,,

# More lines, main results first:
EC50 [1],IC90 (plasma kallikrein; [2]),SMILES,IC90 (plasma kallikrein)
< 2.5 nM,5000 to 65000 nM,"O=C(Nc1cc(NCc2cc3cc(C4CC4)cnc3s2)ccn1)[C@H]1C[C@@H]1c1cccc(Cl)c1 [Example 23, (1S,2S)-2-(3-chlorophenyl)-N-(4-(((5-cyclopropylthieno[2,3-b]pyridin-2-yl)methyl)amino)pyridin-2-yl)cyclopropane-1-carboxamide]",
2.5 to 25 nM,500 to 5000 nM,"Cc1ccnc([C@H]2C[C@@H]2C(=O)Nc2cc(N3C[C@@H](O)C[C@@H]3c3cn4cc(C5CC5)cnc4n3)ncn2)c1 (single isomer, unassigned) [Example 75, (1S*,2S*)—N-(6-((2R,4S)-2-(6-cyclopropylimidazo[1,2-a]pyrimidin-2-yl)-4-hydroxypyrrolidin-1-yl)pyrimidin-4-yl)-2-(4-methylpyridin-2-yl)cyclopropane-1-carboxamide]",
< 2.5 nM,500 to 5000 nM,"CN1CCN(c2cc(C3CC3)nn3cc(CNc4ccnc(NC(=O)[C@H]5C[C@@H]5c5cccc(Cl)c5)c4)nc23)CC1 [Example 40, (1S,2S)-2-(3-chlorophenyl)-N-(4-(((6-cyclopropyl-8-(4-methylpiperazin-1-yl)imidazo[1,2-b]pyridazin-2-yl)methyl)amino)pyridin-2-yl)cyclopropane-1-carboxamide]",
< 2.5 nM,5000 to 65000 nM,"O=C(Nc1cc(NCc2nc3ccc(C4CC4)cn3n2)ccn1)[C@H]1C[C@@H]1c1cccc(Cl)c1 [Example 25, (1S,2S)-2-(3-chlorophenyl)-N-(4-(((6-cyclopropyl-[1,2,4]triazolo[1,5-a]pyridin-2-yl)methyl)amino)pyridin-2-yl)cyclopropane-1-carboxamide]",
< 2.5 nM,< 500 nM,"Cc1ccnc([C@H]2C[C@@H]2C(=O)Nc2cc(NCc3cn4cc(C5CC5)nc(N5CC(=O)N(C)C5=O)c4n3)ncn2)n1 (racemic) [Example 80, rac-(1S*,2S*)—N-(6-(((6-cyclopropyl-8-(3-methyl-2,4-dioxoimidazolidin-1-yl)imidazo[1,2-a]pyrazin-2-yl)methyl)amino)pyrimidin-4-yl)-2-(4-methylpyrimidin-2-yl)cyclopropane-1-carboxamide]",
> 500 nM,,"CC(C)Oc1nccc2nc(CNc3cc(NC(=O)[C@H]4C[C@@H]4c4cccc(Cl)c4)ncn3)cn12 [Example 37, (1S,2S)-2-(3-chlorophenyl)-N-(6-(((5-isopropoxyimidazo[1,2-c]pyrimidin-2-yl)methyl)amino)pyrimidin-4-yl)cyclopropane-1-carboxamide]",
